From ChEMBL document CHEMBL1201862, “PubChem BioAssay data set” (2004)
The source made the active and inactive calls.

Legend:
[1] = target: T1, Corticotropin-releasing factor receptor 2/Corticotropin-releasing factor-binding protein (Homo sapiens, UniProt P24387+Q13324); experiment: Dose Response confirmation of uHTS hits for small molecule antagonists of the CRF-binding protein and CRF-R2 receptor complex.; assay type: functional; conditions: read-out: IC50_Mean
T1 sequence (Q13324 whole entry): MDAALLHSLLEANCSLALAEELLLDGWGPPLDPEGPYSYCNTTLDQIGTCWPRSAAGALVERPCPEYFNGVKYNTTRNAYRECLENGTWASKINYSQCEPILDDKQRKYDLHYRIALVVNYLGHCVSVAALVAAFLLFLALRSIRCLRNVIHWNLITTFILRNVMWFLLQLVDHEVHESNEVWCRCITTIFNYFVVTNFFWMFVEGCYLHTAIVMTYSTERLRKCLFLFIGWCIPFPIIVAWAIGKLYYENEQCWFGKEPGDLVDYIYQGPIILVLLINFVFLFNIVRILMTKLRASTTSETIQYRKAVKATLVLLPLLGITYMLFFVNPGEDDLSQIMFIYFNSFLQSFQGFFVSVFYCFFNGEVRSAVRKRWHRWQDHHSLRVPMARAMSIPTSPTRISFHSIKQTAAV
T1 sequence (P24387 whole entry): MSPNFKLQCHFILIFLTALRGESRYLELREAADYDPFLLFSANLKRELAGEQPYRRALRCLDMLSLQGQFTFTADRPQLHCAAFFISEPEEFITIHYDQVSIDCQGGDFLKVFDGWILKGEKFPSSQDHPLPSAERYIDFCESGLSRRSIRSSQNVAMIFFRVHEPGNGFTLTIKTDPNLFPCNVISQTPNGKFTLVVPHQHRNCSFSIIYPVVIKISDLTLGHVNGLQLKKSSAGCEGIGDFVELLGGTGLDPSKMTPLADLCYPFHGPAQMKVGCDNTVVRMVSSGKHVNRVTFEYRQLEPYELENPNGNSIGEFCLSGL

[2] = target: T1, Corticotropin-releasing factor receptor 2/Corticotropin-releasing factor-binding protein; experiment: activators of CRF receptor 2 with binding protein – uHTS hits, confirmation (AID 602473); assay type: functional; conditions: read-out: EC50_Mean
[3] = blockers of CRF-binding protein–CRF-R2 complex – cell-based, uHTS hits, 384-well, dose response (AID 651639); assay type: functional, Homo sapiens; conditions: read-out: IC50_Mean
[4] = target: Sentrin-specific protease 1 (Homo sapiens, UniProt Q9P0U3); experiment: Dose response confirmation of small molecule inhibitors of the catalytic domain of the SUMO protease, SENP1 in a FRET assay.; assay type: functional; conditions: read-out: IC50_Mean
Chain of Sentrin-specific protease 1 (Q9P0U3 whole entry, the tested form may be a part): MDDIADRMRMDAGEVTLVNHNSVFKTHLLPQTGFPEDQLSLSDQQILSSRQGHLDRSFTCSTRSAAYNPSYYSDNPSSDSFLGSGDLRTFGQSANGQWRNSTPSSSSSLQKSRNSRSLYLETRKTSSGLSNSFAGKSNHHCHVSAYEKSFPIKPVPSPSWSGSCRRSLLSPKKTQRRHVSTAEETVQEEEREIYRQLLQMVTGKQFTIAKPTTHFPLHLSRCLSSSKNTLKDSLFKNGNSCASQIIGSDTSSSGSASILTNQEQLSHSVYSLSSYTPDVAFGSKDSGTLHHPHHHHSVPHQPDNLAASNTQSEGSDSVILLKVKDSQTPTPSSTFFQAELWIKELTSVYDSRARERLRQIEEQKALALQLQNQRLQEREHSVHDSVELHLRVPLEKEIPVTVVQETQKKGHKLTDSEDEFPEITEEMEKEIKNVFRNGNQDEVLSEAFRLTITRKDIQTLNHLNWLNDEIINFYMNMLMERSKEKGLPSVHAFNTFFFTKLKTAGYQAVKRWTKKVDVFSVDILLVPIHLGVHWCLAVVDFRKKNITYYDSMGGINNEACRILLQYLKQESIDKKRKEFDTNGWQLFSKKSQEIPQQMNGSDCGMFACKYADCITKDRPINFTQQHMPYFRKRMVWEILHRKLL

[5] = HIV-1 AD8 envelope cell-cell fusion blockers – cherry-pick, dose response (AID 652062); assay type: functional, cell-based;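 also: luciferase signal from cell-cell fusion driven by HIV-1 clade B AD8 Env; potency is for inhibitors of fusion seen as a drop in luminescence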
[6] = blockers of HIV-1 envelope-mediated cell-cell fusion – cherry-pick, dose response (AID 652057); assay type: functional, cell-based
[7] = off-target signal loss in HeLa-CEM21 co-culture – HeLa F-luc CTL cells, cherry-picked, counter-screen for HIV-1 Env fusion inhibitor project, dose response (AID 652040); assay type: functional, cell-based;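 also: potency for signal decrease marking cytotoxic or nonspecific inhibition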
Interleukin-8 = Interleukin-8 (Homo sapiens, UniProt P10145); experiment: Dose Response confirmation of uHTS small molecule hits for cystic fibrosis induced NFkb Inhibitors in a PAF-induced IL8 counterscreen.; assay type: functional; conditions: read-out: IC50_Mean
Chain of Interleukin-8 (P10145 whole entry): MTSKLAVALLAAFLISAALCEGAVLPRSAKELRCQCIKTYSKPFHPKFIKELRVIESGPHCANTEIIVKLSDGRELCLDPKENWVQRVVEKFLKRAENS

[8] = target: T2, Small ubiquitin-related modifier 2 (Homo sapiens, UniProt P61956); experiment: disruption of SUMO2 interaction with SIM peptide – biochemical, fluorescence polarization, uHTS hits, selectivity assay for SUMO1 interaction inhibitor project, dose response (AID 624385); assay type: functional; conditions: read-out: IC50_Mean
T2 sequence (P61956 whole entry): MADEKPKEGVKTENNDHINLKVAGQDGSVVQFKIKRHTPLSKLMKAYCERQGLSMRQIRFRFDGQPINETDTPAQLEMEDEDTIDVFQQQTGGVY

[9] = target: T3, Small ubiquitin-related modifier 1 (Homo sapiens, UniProt P63165); experiment: SUMO1 protein interaction blockers, potency – biochemical, fluorescence polarization, uHTS hits, dose response (AID 624382); assay type: functional; conditions: read-out: IC50_Mean
T3 sequence (P63165 whole entry): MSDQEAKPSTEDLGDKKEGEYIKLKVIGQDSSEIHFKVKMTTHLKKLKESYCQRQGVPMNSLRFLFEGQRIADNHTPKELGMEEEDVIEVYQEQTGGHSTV

[10] = target: T3, Small ubiquitin-related modifier 1; experiment: SUMO1 protein-protein binding blockers, potency – biochemical, FRET, dose response (AID 624383); assay type: functional; conditions: read-out: IC50_Mean
Genome polyprotein = Genome polyprotein (dengue virus type 2, UniProt P29990); experiment: flavivirus cap methylation enzyme inhibition – biochemical, confirmation dose response, primary screen (AID 588689); assay type: functional
Chain of Genome polyprotein (P29990 2492-3391 limits assumed): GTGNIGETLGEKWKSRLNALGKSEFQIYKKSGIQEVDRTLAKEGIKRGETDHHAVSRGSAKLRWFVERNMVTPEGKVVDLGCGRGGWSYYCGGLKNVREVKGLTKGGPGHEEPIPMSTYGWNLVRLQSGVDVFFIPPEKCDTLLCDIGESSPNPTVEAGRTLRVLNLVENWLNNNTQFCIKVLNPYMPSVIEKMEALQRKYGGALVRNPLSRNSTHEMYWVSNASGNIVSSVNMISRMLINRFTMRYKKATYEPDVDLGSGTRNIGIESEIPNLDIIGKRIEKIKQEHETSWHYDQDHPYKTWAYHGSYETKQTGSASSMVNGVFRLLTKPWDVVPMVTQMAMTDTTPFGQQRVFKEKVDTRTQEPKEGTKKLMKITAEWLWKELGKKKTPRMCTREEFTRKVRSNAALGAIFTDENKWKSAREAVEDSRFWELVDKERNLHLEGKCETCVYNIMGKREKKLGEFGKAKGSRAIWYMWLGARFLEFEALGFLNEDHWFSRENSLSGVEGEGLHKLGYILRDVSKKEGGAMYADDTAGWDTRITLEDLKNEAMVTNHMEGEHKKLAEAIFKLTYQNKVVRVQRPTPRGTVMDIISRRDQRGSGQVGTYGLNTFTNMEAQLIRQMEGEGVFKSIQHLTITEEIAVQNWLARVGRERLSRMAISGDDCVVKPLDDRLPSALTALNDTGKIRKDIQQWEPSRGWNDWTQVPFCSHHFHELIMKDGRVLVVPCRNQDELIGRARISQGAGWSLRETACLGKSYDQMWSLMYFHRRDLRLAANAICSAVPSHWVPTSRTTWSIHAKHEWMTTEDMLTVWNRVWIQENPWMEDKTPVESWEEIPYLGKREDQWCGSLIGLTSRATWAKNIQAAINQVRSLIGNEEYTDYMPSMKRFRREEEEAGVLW

[11] = target: T2, Small ubiquitin-related modifier 2; experiment: SUMO2 binding disruption by SUMO1 hits – biochemical, FRET, human SUMO2, uHTS hits, selectivity assay for SUMO1 interaction inhibitor project, dose response (AID 624384); assay type: functional; conditions: read-out: IC50_Mean
[12] = target: T4, Rac GTPase-activating protein 1 (Homo sapiens, UniProt Q9H0H5); experiment: blockers of MgcRacGAP-driven Rac1 GTP hydrolysis – biochemical, ADP Hunter fluorescence, primary and confirmatory, confirmation (AID 624330); assay type: functional
T4 sequence (Q9H0H5 whole entry): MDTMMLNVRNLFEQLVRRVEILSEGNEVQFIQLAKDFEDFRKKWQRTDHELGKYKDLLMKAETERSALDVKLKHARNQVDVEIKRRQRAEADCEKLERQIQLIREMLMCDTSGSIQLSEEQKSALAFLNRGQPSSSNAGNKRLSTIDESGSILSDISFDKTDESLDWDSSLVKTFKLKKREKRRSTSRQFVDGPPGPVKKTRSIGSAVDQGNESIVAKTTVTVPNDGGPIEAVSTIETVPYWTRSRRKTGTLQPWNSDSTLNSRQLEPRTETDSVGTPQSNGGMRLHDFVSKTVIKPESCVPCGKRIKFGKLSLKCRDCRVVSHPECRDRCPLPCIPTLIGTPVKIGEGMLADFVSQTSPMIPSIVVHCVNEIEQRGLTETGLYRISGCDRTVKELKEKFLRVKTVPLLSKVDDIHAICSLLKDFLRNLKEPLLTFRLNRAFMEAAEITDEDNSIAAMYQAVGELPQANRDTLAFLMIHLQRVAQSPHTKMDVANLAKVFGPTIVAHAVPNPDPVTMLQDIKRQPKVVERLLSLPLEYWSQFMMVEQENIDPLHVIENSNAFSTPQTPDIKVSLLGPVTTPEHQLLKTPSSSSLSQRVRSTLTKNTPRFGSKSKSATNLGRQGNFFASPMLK

[13] = target: Carboxy-terminal domain RNA polymerase II polypeptide A small phosphatase 1 (Homo sapiens, UniProt Q9GZU7); experiment: CTDSP1 inhibitors, concentration-response, biochemical, absorbance readout, ultra-high-throughput screen actives (AID 540297); assay type: functional
Chain of Carboxy-terminal domain RNA polymerase II polypeptide A small phosphatase 1 (Q9GZU7 whole entry, the tested form may be a part): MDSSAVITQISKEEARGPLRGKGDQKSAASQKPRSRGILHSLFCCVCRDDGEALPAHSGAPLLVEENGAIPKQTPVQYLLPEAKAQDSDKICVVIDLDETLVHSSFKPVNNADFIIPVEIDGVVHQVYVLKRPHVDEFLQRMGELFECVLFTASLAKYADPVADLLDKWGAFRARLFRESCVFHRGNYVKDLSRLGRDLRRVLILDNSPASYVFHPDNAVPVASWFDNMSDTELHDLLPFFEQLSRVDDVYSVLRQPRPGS

[14] = target: T5, Probable nicotinate-nucleotide adenylyltransferase (Staphylococcus aureus (strain N315), UniProt P65502); assay type: functional, Staphylococcus aureus subsp. aureus N315; conditions: read-out: IC50_Mean;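 as to IC50 Mean: confirmatory dose-response retesting of NadD inhibitor hits first found in an ultra-high-throughput screen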
T5 sequence (P65502 whole entry): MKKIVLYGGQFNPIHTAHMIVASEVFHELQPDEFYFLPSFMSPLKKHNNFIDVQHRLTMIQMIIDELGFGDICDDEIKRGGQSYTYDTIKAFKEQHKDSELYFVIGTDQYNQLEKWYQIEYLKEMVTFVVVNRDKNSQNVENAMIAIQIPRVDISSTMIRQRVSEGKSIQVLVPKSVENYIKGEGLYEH

[15] = target: T5, Probable nicotinate-nucleotide adenylyltransferase; assay type: functional, Staphylococcus aureus subsp. aureus N315
[16] = mouse fibroblast viability loss – cell-based, cherry-pick samples, set 2, cytotoxicity control for T. cruzi growth inhibitor project, dose response (AID 651817); assay type: functional; conditions: NIH3T3

Cc1noc(C)c1COC(=O)c1cc(C)n(-c2ccccc2)c1C
IC50 [1]: 6.04 µM (active) | EC50 [2]: > 53 µM (inactive) | IC50 [3]: > 20 µM (inactive)

Cc1nc2ccc(NS(=O)(=O)c3ccc(F)cc3F)cc2s1
IC50 [4]: 18.4 µM (active)

COc1ccc(-c2cc(=O)oc3c(C)c(O)ccc23)cc1
AC50 [5]: 5.69 µM (active) | AC50 [6]: 3.8 µM (active) | AC50 [7]: 9.72 µM (active) | IC50 (Interleukin-8): > 79 µM (inactive)

CCCCCC(=O)Nc1cc(S(=O)(=O)O)cc2cc(S(=O)(=O)O)cc(O)c12
IC50 [8]: 6.81 µM (active) | IC50 [9]: 19.2 µM (active) | IC50 [10]: 2.29 µM (active) | IC50 (Genome polyprotein): 30 µM (active) | IC50 [11]: 0.92 µM (active) | IC50 [12]: 31.7 µM (active)

CC1CCCCC1NC(=O)COC(=O)c1c2c(nc3ccccc13)/C(=C\c1ccco1)CC2 (stereo not drawn)
IC50 [13]: 5.27 µM (active) | IC50 [14]: 14.6 µM (active) | IC50 [15]: 6.81 µM (active)

C[C@@H]1CN([C@@H](C)CO)C(=O)Cc2cc(NS(=O)(=O)c3ccc(F)cc3)ccc2O[C@@H]1CN(C)Cc1ccc(Cl)c(Cl)c1
AC50 [16]: 11 µM (active)
